Data published in patent US20180148429A1 (SELVITA S.A., priority 2015, published 2018).

Columns and labels:
[1] = molecular target: T1, BRK (PTK6 protein tyrosine kinase 6) (Homo sapiens, UniProt Q13882); test: BRK (PTK6 protein tyrosine kinase 6) IC50 determination assay (in vitro kinase assay, ADP-Glo Max); assay type: biochemical; conditions: ATP 1600 uM (Km), Poly(Glu, Tyr) 160 uM, 75 nM PTK6, 45 min, RT
T1 construct: purchased Carna Bioscience 08-165
Method: BRK (PTK6 Protein Tyrosine Kinase 6) IC50 Determination Assay
In vitro kinase assay used to determine IC50 values for tested inhibitors is based on a modified ADP-Glo™ Max Assay system (Promega) and consists of two parts:
1. Kinase reaction—performed in optimized conditions. At this step BRK phosphorylates its substrate Poly(Glu, Tyr) sodium salt [Glu:Tyr (4:1)] using ATP as a source of phosphate to produce phosphorylated substrate and ADP. Reaction is performed at Km values for ATP and substrate using optimized buffer composition and time of the reaction. BRK (PTK6 protein tyrosine kinase 6) used in the experiments is commercially available (Carna Bioscience, cat. No. 08-165).
2. Detection of ADP as a product of the reaction using ADP-Glo™ system. This part is conducted by using the commercially available kit ADP-Glo™ Max Assay (Promega, cat. No. V7001) according to manufacturer's instruction. Reproducibility and reliability of this modification is confirmed in an optimization process.
Test compounds are dissolved in DMSO and then transferred to the V-bottom 96-well plate.
Two mixes are prepared on ice: Mix 1—containing appropriate kinase amount in 2× reaction buffer and Mix 2—containing concentrated substrate (Poly(Glu, Tyr) sodium salt) and ATP in MilliQ water. 15 μL per well of Mix 1 is transferred to assay wells of 96-well white plate. Next, 2 μl of 15× concentrated test compound in DMSO is added to Mix 1 for 20 min pre-incubation, followed by addition of Mix 2 (13 μl/well). Total reaction volume is 30 μL per well. Samples are tested in duplicates. Final concentration of DMSO in the reaction is 6.7%. Conditions needed for performing BRK in vitro kinase assay are given below:
This protocol is based on Technical Bulletin, ADP-Glo™ Kinase Assay (Promega) and is adapted to 96-well plate containing 30 μL reaction mixture. 30 μL of ADP-Glo™ Reagent is added to each well of 96-well plate containing 30 μL of reaction mixture. The plate is incubated for 90 minutes on a shaker at RT. 60 μL of ADP-Glo™ Max Detection Solution is added to each well of 96-well plate containing 60 μL of the solution (ratio of kinase reaction volume to ADP-Glo™ Reagent volume to Kinase Detection Solution volume is maintained at […]). Plate is incubated for 40 minutes on a shaker at RT, protected from light. Luminescence is measured in the plate reader Synergy 2 (BioTek). Luminescent readouts for compounds tested in 8 concentrations (routinely from 66.7 μM in 5-fold serial dilution step) in duplicates, as well as for high control (complete reaction mix w/DMSO vehicle control), are first normalized to no-substrate low control by its subtraction. In the next step, % of normalized positive control is calculated for each data point and plotted against test compound concentration:
% of control—percent of positive control normalized to no-substrate negative control Lumcpd—luminescence of test compound Lumneg—luminescence of no-substrate negative control Lumpos—luminescence of positive control
IC50 parameter is determined by the GraphPad Prism 6.0 software using 4-parameter model.

[2] = molecular target: T2, Human recombinant His-tagged PFKFB3 (Homo sapiens, UniProt Q16875); test: PFKFB3 IC50 determination assay (in vitro kinase assay, modified ADP-Glo system); assay type: biochemical; conditions: ADP-Glo; ATP 20 μM (Km), fructose-6-phosphate 2 μM (Km), 25 nM PFKFB3, 2 h, rt; read-out: PFKFB3 IC50
T2 construct: His; made in house
T2 sequence (Q16875 whole entry): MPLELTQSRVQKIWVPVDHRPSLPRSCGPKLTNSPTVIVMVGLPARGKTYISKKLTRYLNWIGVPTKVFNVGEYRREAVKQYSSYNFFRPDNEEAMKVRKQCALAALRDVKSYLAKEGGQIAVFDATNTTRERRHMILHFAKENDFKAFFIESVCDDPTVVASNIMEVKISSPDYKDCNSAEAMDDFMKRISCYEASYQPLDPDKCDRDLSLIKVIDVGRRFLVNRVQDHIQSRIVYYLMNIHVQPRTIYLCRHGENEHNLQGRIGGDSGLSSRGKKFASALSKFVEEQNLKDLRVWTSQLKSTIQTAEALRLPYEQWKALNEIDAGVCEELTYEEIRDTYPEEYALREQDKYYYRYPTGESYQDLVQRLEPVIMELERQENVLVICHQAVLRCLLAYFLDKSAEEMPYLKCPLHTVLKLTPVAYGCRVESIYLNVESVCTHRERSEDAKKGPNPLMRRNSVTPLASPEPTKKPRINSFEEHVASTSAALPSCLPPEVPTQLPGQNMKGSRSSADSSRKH

T1 sequence (Q13882 whole entry): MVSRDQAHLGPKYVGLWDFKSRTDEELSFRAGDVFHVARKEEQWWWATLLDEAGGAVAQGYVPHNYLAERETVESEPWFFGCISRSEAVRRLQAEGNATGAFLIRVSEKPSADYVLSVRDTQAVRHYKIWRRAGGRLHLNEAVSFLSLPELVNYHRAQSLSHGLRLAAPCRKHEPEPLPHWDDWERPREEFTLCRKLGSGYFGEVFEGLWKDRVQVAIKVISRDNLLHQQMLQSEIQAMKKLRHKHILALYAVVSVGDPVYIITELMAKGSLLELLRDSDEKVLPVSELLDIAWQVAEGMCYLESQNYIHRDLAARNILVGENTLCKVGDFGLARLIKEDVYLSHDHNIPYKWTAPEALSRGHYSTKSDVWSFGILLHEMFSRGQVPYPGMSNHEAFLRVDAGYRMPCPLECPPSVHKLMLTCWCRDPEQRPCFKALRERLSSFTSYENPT

Compound	IC50 [1]	IC50 [2]
CN1CCC(Nc2cc(-c3ccc4ccn(C)c4c3)c3nccnc3c2)CC1=O (centres unmarked) [Example 132]	0.001 to 1 µM	0.001 to 1 µM
CC(Nc1cc(N2CC3CCCC3C2)c2nccnc2c1)c1cccnc1 (centres unmarked) [Example 65]	1 to 10 µM	10 to 100 µM
Cn1ccc2ccc(-c3cc(NCc4ccc5nccn5c4)cc4nccnc34)cc21 [Example 128]	0.001 to 1 µM	1 to 10 µM
CC(Nc1cc(-c2ccc3ccn(C)c3c2)c2nccnc2c1)c1ccccn1 (centres unmarked) [compound 5, 8-(1-methyl-1H-indol-6-yl)-N-[1-(pyridin-2-yl)ethyl]quinoxalin-6-amine]	0.001 to 1 µM	1 to 10 µM
COc1ncccc1CNc1cc(-c2ccc3ccn(C)c3c2)c2nccnc2c1 [Example 86]	0.001 to 1 µM	1 to 10 µM
Cn1ccc2ccc(-c3cc(NC4CCCc5ccncc54)cc4nccnc34)cc21 (centres unmarked) [compound 16, 8-(1-methyl-1H-indol-6-yl)-N-(5,6,7,8-tetrahydroisoquinolin-8-yl)quinoxalin-6-amine]	0.001 to 1 µM	0.001 to 1 µM
Cn1ccc2ccc(-c3cc(NC4CCCc5ncccc54)cc4nccnc34)cc21 (centres unmarked) [compound 19, 8-(1-methyl-1H-indol-6-yl)-N-(5,6,7,8-tetrahydroquinolin-5-yl)quinoxalin-6-amine]	0.001 to 1 µM	0.001 to 1 µM
C[C@@H](Nc1cc(-c2ccc3ccn(C)c3c2)c2nccnc2c1)c1cccnc1 [Example 35]	1 to 10 µM	0.001 to 1 µM
Cc1cnc2c(-c3ccc4ccn(C)c4c3)cc(NC(C)c3cccnc3)cc2n1 (centres unmarked) [Example 34]	10 to 100 µM	0.001 to 1 µM

Results, then the molecule that gave them:

IC50 [1]	IC50 [2]	Compound
0.001 to 1 µM	1 to 10 µM	Cn1ccc2ccc(-c3cc(NCc4cccc(C#N)c4)cc4nccnc34)cc21 [Example 71]
0.001 to 1 µM	0.001 to 1 µM	CC(=O)N1CCC(C(Nc2cc(-c3ccc4ccn(C)c4c3)c3nccnc3c2)c2cccnc2)CC1 (centres unmarked) [Example 123]
0.001 to 1 µM	1 to 10 µM	Cn1ccc2ccc(-c3cc(NCc4cnc(N)nc4)cc4nccnc34)cc21 [Example 121]
0.001 to 1 µM	1 to 10 µM	CN1CC(Nc2cc(-c3ccc4ccn(C)c4c3)c3nccnc3c2)CCC1=O (centres unmarked) [Example 133]
0.001 to 1 µM	1 to 10 µM	Cn1ccc2ccc(-c3cc(NCc4ccnc(Br)c4)cc4nccnc34)cc21 [Example 137]
1 to 10 µM	1 to 10 µM	CC(Nc1cc(-c2cccc3c2ccn3C)c2nccnc2c1)c1cccnc1 (centres unmarked) [Example 93]
0.001 to 1 µM	1 to 10 µM	Cn1ccc2ccc(-c3cc(NCC4COCCN4)cc4nccnc34)cc21 (centres unmarked) [Example 131]
